For one series, the system named is cells expressing TM4SF5. The experiment in a line: Activation of glycolytic function (acidification of extracellular solution, Seahorse). In kind it is cell-based. The method, then:
The cells expressing TM4SF5 were treated with vehicle, a negative control compound (4′-methoxy-4-dihydroxychalcone) or TSAHC. Then, the degree of activation of glycolytic function was measured by measuring the acidification of the extracellular solution due to glycolysis while additionally adding glucose at various concentrations using Seahorse equipment.

For series [1], the system named is M1 and M2 type macrophages differentiated from THP-1 cells. The experiment in a line: qRT-PCR of M1 or M2 type macrophage markers in macrophages differentiated from THP-1 cells. In kind it is cell-based, human. The note with it: 100 nM for 24 hours; for mRNA levels of M1 type macrophage markers (TNFα, IL1β, IL6) compared to the control group: M1 type macrophages, FIG. 12A. The method, then:
M1 and M2 type macrophages (MΦ) differentiated from THP-1 cells were treated with CCL20 or CXCL10 at a concentration of 100 nM for 24 hours, and then the mRNA expression levels of the markers indicating the activity as M1 or M2 type macrophages were confirmed by qRT-PCR. For M1 type macrophages, the mRNA expression levels of TNFα, IL1β and IL6 were measured, and for M2 type macrophages, the mRNA expression levels of CD206 and FN1 were measured.
Background: Quantitative PCR measures a nucleic acid by following its amplification.

In series [2] the test system is M0 THP-1 cells expressing TM4SF5. The experiment in a line: Glycolytic Proton Efflux Rate (GlycoPER) in M0 THP-1 cells treated with CCL20 or CXCL10. The class given is cell-based, human. The note with it: 300 ng/ml for 24 hours, FIG. 9. Here is the method:
THP-1 cells infected with a lentivirus with an empty vector not expressing TM4SF5 or a lentivirus expressing TM4SF5 were treated with 100 nM phorbol-12-myristate-13-acetate (PMA) for 24 hours to differentiate into M0 cells (experimental condition to confirm the not repetitive effects of cytokines/chemokines in the early stage by representing the case before differentiation into M1 type), and then, 300 ng/ml of CCL20 or CXCL10 was treated for 24 hours, and basal and compensatory Glycolytic Proton Efflux Rate (GlycoPER) were measured using a Seahorse XFp device.

In the next series the test system is Ccl20. The experiment in a line: CCl4-induced liver damage, inflammation and fibrosis with suppression of Ccl20 expression by siRNA. The class given is in vivo, mouse. Here is the method:
12-week-old normal WT or Tm4sf5^−/− KO mice (5 per group) were intraperitoneally injected with CCl4 (TRC, Canada, C176905, 10 mg/kg/40% olive oil) twice a week for 4 weeks. Ccl20 siRNA [sense 5′-GGAGGAAAUGAUCACAGCUtt-3′ (SEQ. ID. NO: 101), antisense 5′-AGCUGUGAUCAUUUCCUCCtt-3 (SEQ. ID. NO: 102) was purchased from Ambion (Austin Texas, USA) and diluted to an appropriate concentration in PBS. Ccl20 siRNA (1.66 mg/kg) or vehicle was intravenously injected into the mice twice a week. After 4 weeks, liver and blood samples of the animals were obtained.
As shown in the scheme of FIG. 5, 12-week-old normal C57BL/6 mice were intraperitoneally injected with CCl4 (40% in olive oil) at a concentration of 10 mg/kg body weight twice a week for 26 days. At the same time, siRNA against CCL20 (Amibon, Austin Texas, USA, Assay ID 72932, sense 5′-GGAGGAAAUGAUCACAGCUtt-3′, antisense 5′-AGCUGUGAUCAUUUCCUCCtt-3′) dissolved in PBS at a concentration of 1.66 mg/kg was intravenously injected for 26 days before the CCl4 injection. After 26 days of the injection, the mice were sacrificed, and the liver tissue was obtained. Then, the disease state of the liver was investigated by performing immunohistochemistry (IHC), Masson's trichrome staining and qRT-PCR.
Specifically, for H&E staining, the tissue was placed in a 60° C. oven for about 20 minutes to separate the tissue from paraffin, and when the paraffin melted, the tissue was immersed in xylene three times for 5 minutes each. The tissue was put into 100%→90%→80%→70% ethanol→distilled water for 3 minutes each in the order, and then immersed in a hematoxylin solution for 5 minutes to react. After sufficiently washing the tissue with tap water, it was reacted with an eosin solution for about 20 minutes, and washed again with tap water. Then, the tissue was immersed in 70%→80%→90%→100% ethanol→xylene for 3 minutes each in the order for dehydration, followed by mounting on a slide.
Paraffin blocks and liver tissue sections for immunohistochemical staining were obtained from Abion Inc. (Seoul, Korea). As antibodies, F4/80 (Cell Signaling Technology), Ccl20, laminin γ2 (Santa Cruz Biotechnology) were used.
For Masson's trichrome staining, the tissue was first separated from paraffin and then reacted in a preheated bouin's solution for 1 hour. After rinsing the tissue with tap water until the solution was completely drained, it was reacted in a hematoxylin solution for 10 minutes, and then rinsed again with tap water. Then, the tissue was reacted in a biebrich scarlet-acid fuchsin solution for 5 minutes, immersed in distilled water, and reacted in a phosphotungstic/phosphomolybdic acid solution for 15 minutes. The tissue was immersed in an Aniline blue solution for 10 minutes and 1% acetic acid for 1 minute for dehydration. The tissue was immersed in xylene, followed by mounting on a slide.

The test system of series [3] is cell lines expressing TM4SF5. The experiment in a line: qRT-PCR of M1-type macrophage chemokines/cytokines CCL2, TNF-α, IL-6, IL-1β. In kind it is cell-based. As to conditions: cell line expressing TM4SF5, LPS and IFN-γ. The method, then:
Cell lines not expressing TM4SF5 (EV) or cell lines expressing thereof (TM4SF5) were treated (+) or not treated with LPS and IFN-γ, treated (+) or not treated with 2-DG (2-Deoxy-D-glucose) as a drug for inhibiting glycolysis at a given concentration, and additionally treated (+) or not treated with TSAHC (−). Then, the mRNA expression levels of CCL2, TNF-α, IL-6, and IL-1β, the chemokines/cytokines indicating the activation of M1-type macrophages, were confirmed by qRT-PCR.

The results in this text go back to US12064405B2, “Immunosuppressant comprising TSAHC or a pharmaceutically acceptable salts thereof as an active ingredient” (Seoul National University R&DB Foundation, priority 2020, dated 2024).

As to “4′-methoxy-4-dihydroxychalcone [control compound, reference compound]”, in the series with cells expressing TM4SF5 (EV cell line, FIG. 8B), the “glycolysis of the cells not expressing TM4SF5 (EV)” value is given as “not changed”. The “glycolytic function of cells expressing TM4SF5” value in the series on cells expressing TM4SF5 (various concentrations of glucose added, FIG. 8C) is on record as “not changed”.

In the case of “CCL20: chemokine used to treat THP-1-derived macrophages”, in series [1], the “mRNA levels of M1 type macrophage markers (TNFα, IL1β, IL6) compared to the control group” value is “decreased”. Besides, in series [1] (M2 type macrophages, CCL20 alone or together with CXCL10, FIG. 12B), the “mRNA levels of M2 type macrophage markers (CD206, FN1)” value is listed as “significantly increased”. For the same compound, in series [2], the “glycolytic function (basal and compensatory GlycoPER) versus vehicle-treated control group” value is listed as “higher”.

Take “Ccl20 siRNA: siRNA against CCL20 (Ambion), sense 5′-GGAGGAAAUGAUCACAGCUtt-3′, antisense 5′-AGCUGUGAUCAUUUCCUCCtt-3′ (sense GGAGGAAAUGAUCACAGCUTT; antisense AGCUGUGAUCAUUUCCUCCTT; chemistry not given here)”: the “collagen type 1 α1 chain (Col1α1) mRNA level in liver” value with Ccl20 (during CCl4 treatment, FIG. 6A) is given as “decreased”. Besides, the “Ccl20 mRNA level in liver” value in the series with Ccl20 (during CCl4 treatment, FIG. 6B) is reported as “decreased”. The “F4/80 mRNA level in liver” value with Ccl20 (during CCl4 treatment, FIG. 6C) was “decreased”. Moreover, the “α-smooth muscle actin (Sma) mRNA level in liver” value in the series on Ccl20 (during CCl4 treatment, FIG. 6D) is “decreased”. The “effect of CCl4 treatment (liver tissue damage, collagen accumulation, Ccl20 and Cxcl10 accumulation, F4/80 macrophage infiltration, laminin γ2 accumulation)” value in the series on Ccl20 (siRNA 1.66 mg/kg intravenously, CCl4 10 mg/kg twice a week, 26 days, FIG. 5) was “significantly inhibited”.

As to “CXCL10: chemokine used to treat THP-1-derived macrophages”, in series [1], the “mRNA levels of M1 type macrophage markers (TNFα, IL1β, IL6) compared to the control group” value is listed as “decreased”. In series [2], the “glycolytic function (basal and compensatory GlycoPER) versus vehicle-treated control group” value is given as “higher”.

For the compound `O=CC[C@@H](O)[C@H](O)[C@H](O)CO` [2-DG, 2-Deoxy-D-glucose, reference compound], the “CCL2 mRNA expression level” value in series [3] (FIG. 11A) is recorded as “decreased”. Also, the “TNF-α mRNA expression level” value in series [3] (FIG. 11B) is “decreased”. In addition, the “IL-6 mRNA expression level” value in series [3] (FIG. 11C) is listed as “decreased”. For the same compound, the “IL-1β mRNA expression level” value in series [3] (FIG. 11D) is listed as “decreased”.
